Data on five molecules can be found in patent US11965039B2, “Compstatin analogues and their medical uses” (priority 2018, dated 2024).

Starred links: 1 amine or outer side, 2 acyl side, 3 side chain; linkers in the order of their positions; H or OH if unused. Positions of bridges follow the written chain, without caps; N, C: chain ends. Non-standard residues stand in square brackets, D forms with d. Residues, ends and D or L forms follow the SMILES beside them. Groups on a side chain read outwards from the residue. *: point of attachment. Trp(1-Me) = Cn1cc(C[C@H](N)C(=O)O)c2ccccc21; C18 diacid = O=C(O)CCCCCCCCCCCCCCCCC(=O)*; γGlu = O=C(O)[C@H](CCC(=O)[*:2])N[*:1]; AEEA = NCCOCCOCC(=O)O; Sar = CNCC(=O)O

Data set [1] deals with classical complement pathway. The data set is described as follows: In vitro haemolysis assay (inhibition of classical complement pathway). The format is cell-based, human. The following applies: human serum, sensitized sheep red blood cells; Table 3, given as upper bounds; read-out: IC50, inhibition of hemolysis. The procedure, abridged:
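Compound dilutions preincubated 15 min at room temperature with diluted human serum (titrated per batch for 70-90% maximal haemolysis), then antibody-sensitized sheep RBC (10^7/well) added for 30 min at 37 °C in Tris/casein buffer, pH 7.4. Stopped with EDTA; haemolysis read at 405 nm; IC50 by 4PL fit.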

For data set [2], the system named is alternative complement pathway. The experiment in a line: Ex vivo alternative pathway complement activity (WIESLAB kit) after s.c. dosing in non-human primates. Also noted: species or system Cynomolgus monkeys (Macaca fascicularis). The following applies: NHP, subcutaneous 1840 nmol/kg, FIG. 1a-f. On the procedure:
FIG. 1(a-f): Normalized “ex vivo” activity of the alternative complement pathway over time after administration of a test compound at time 0 to one or two non-human primates. Compounds were given subcutaneously at a dose of 1840 nmol/kg. Complement activity (alternative pathway) was measured using the Wieslab kit. Activity was normalized using the predose (0) sample (set to 100%) and the negative control included in the kit. Normalized activity or average normalized activity for both animals and standard deviation is shown.
(§1) Healthy male Cynomolgus monkeys (Macaca fascicularis) received single subcutaneous administrations of each test substance. Compounds were formulated in 20 mM phosphate adjusted with NaOH to pH 7.5 and mannitol for isotonicity and dosed at 1840 nmol/kg. Blood was collected from a femoral vein from each animal at the following times: Pre-dose, 1, 2, 4, 8, 24, 48, 72, 96 and 120 h (10 sampling times). Blood was collected into serum separation tubes and allowed to clot at room temperature. The tubes were centrifuged and resulting serum was aliquoted and snap-frozen over dry-ice and stored at nominally −80° C. until analysis. All NHP studies were performed in accordance with animal welfare laws and regulations, including approval of the study by a local ethical review process.
Serum isolated from non-human primates at specific time points after dosing were analyzed for alternative pathway complement activity using the Complement system Alternative Pathway WIESLAB® kit from Svar Life Science (previously Euro diagnostic AB, Sweden) following the manufacturer's protocol. Briefly, serum samples or controls were diluted in buffer and incubated in microtitre strips coated with specific activators of the alternative pathway. The wells were washed and formed C5b-9 was detected using included colorimetric reagents. Absorbance at 405 nm was measured. The percent activity of the alternative complement pathway was calculated for each animal and timepoint relative to the pre-dose activity (0 hours) of the individual animal with subtraction of the negative control. […]

A short description of data set [3]: Pharmacokinetic half-life in non-human primates (serum, LC-MS/MS). In kind it is in vivo, Cynomolgus monkeys (Macaca fascicularis). The following applies: male, cynomolgus monkey, sc, NHP, single subcutaneous dose 1840 nmol/kg, * = approximate determination. On the procedure: as §1
In order to assess pharmacokinetic half-life (t ½), serum samples isolated from non-human primates at specific time points after dosing were analysed for total drug compound after sample preparation by solid phase extraction (SPE) and liquid chromatography mass spectrometry (LC-MS/MS) using analogue internal standard. Single measurement of serum concentrations were used for calculation of the pharmacokinetic parameters using the non-compartmental approach in Phoenix WinNonlin 6.3. Plasma terminal elimination half-life (t½) was determined as In(2)/λz where λz is the magnitude of the slope of the log linear regression of the log concentration versus time profile during the terminal phase.

A short description of data set [4]: Solubility test at 10 mg/mL (visual inspection and light scattering). To be noted: for Solubility, Condition 1: Acetate pH 4; for Solubility, Condition 2: Acetate pH 5; for Solubility, Condition 3: Phosphate pH 6; for Solubility, Condition 4: Phosphate pH 7; for Solubility, Condition 5: Phosphate pH 7.5. The format is physicochemical.
Data set [5] addresses T1, Human C3 (Complement tech cat #A113c) (human, UniProt P01024 23-1663). The data set is described as follows: cell-based or functional assay.
The target in data set [6] is T1, Human C3 (Complement tech cat #A113c). The data set is described as follows: cell-based or functional assay. This is another data set of the same source.

T1 sequence (P01024 23-1663 limits assumed): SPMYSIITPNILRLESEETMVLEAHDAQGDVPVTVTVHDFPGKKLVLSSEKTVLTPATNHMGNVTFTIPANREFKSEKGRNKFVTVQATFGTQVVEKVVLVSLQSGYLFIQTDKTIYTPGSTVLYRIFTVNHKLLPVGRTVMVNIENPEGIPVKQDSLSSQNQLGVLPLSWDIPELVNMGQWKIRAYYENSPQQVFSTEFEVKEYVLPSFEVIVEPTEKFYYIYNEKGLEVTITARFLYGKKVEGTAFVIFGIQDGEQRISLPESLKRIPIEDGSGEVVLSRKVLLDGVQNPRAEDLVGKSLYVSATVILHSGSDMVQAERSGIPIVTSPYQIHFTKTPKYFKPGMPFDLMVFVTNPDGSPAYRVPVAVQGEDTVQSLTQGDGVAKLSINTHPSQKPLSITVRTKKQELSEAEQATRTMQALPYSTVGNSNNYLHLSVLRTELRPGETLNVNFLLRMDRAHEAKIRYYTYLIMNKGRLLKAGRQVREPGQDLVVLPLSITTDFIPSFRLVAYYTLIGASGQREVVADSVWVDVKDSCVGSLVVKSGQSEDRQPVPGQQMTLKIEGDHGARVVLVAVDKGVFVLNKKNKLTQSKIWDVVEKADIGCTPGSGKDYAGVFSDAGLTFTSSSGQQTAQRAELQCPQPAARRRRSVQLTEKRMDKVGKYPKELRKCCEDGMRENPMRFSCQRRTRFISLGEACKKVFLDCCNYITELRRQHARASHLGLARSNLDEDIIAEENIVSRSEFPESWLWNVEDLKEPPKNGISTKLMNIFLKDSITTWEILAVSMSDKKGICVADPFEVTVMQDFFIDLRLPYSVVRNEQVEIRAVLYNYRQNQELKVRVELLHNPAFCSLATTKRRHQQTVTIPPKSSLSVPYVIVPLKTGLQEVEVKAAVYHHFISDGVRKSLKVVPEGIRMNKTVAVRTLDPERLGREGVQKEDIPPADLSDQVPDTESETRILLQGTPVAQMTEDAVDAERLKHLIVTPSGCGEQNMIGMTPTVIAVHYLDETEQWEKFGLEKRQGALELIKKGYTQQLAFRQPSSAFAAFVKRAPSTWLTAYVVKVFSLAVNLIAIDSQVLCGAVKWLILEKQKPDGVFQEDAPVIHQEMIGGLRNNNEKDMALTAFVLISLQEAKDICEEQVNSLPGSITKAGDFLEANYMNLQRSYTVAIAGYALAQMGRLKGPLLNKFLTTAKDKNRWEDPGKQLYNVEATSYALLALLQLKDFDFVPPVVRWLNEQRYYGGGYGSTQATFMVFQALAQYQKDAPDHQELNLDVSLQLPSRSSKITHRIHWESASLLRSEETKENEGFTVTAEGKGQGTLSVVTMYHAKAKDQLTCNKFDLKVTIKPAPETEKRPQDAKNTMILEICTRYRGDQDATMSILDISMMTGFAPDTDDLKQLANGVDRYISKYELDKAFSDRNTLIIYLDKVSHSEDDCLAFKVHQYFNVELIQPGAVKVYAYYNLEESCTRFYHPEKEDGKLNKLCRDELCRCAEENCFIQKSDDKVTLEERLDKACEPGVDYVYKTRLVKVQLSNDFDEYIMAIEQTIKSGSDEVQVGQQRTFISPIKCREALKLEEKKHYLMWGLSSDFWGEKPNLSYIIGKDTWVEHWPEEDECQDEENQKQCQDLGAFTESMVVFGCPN

Turning to `CC[C@H](C)[C@H](NC(=O)[C@H](N)Cc1ccc(O)cc1)C(=O)N[C@H]1CSSC[C@@H](C(=O)N(C)[C@H](C(N)=O)[C@@H](C)CC)NC(=O)[C@H](CCCNC(=N)N)NC(=O)[C@H](Cc2c[nH]cn2)NC(=O)[C@H](C)NC(=O)CN(C)C(=O)[C@H](Cc2c[nH]c3ccccc23)NC(=O)[C@H](CC(=O)O)NC(=O)[C@H](CCC(N)=O)NC(=O)[C@H](Cc2cn(C)c3ccccc23)NC(=O)[C@H](C(C)C)NC1=O` [Cp40, H-{d}YIC(1)V[1-Me-Trp]QDW[Sar]AHRC(1)[N-Me-Ile]-NH2, reference compound], in data set [1], the IC50 (as a rule, the concentration at which inhibition is half-maximal) is under 100 nM. Further, the “duration of action (alternative pathway complement activity)” value (“duration of action” for short) in data set [2] is “relatively short duration of action”.

On to `CC[C@H](C)[C@@H]1NC(=O)[C@@H](NC(=O)[C@H](Cc2ccc(O)cc2)NC(=O)[C@H](CCC(=O)O)NC(=O)[C@H](CO)NC(C)=O)CSSC[C@@H](C(=O)N(C)CC(=O)N[C@@H](CCC(=O)O)C(=O)NCC(=O)N[C@@H](C)C(=O)N[C@@H](CCCCNC(=O)COCCOCCNC(=O)CC[C@H](NC(=O)COCCOCCNC(=O)CNC(=O)CC[C@H](NC(=O)CCCCCCCCCCCCCCCCC(=O)O)C(=O)O)C(=O)O)C(N)=O)NC(=O)[C@H](CCCNC(=N)N)NC(=O)[C@H](Cc2c[nH]cn2)NC(=O)[C@H](CCC(=O)O)NC(=O)CNC(=O)[C@H](Cc2c[nH]c3ccccc23)NC(=O)[C@H](CC(=O)O)NC(=O)[C@H](CCC(N)=O)NC(=O)[C@H](Cc2cn(C)c3ccccc23)NC1=O` [Compound 118] (Ac-SEYCI[Trp(1-Me)]QDWGEHRC[Sar]EGAK([AEEA-γGlu-AEEA-Gly-γGlu-C18 diacid])-NH2; disulfide 4-14), for which the half-inhibitory concentration (IC50) in data set [1] was under 100 nM. For the same molecule, the half-life (in general, the time needed for the level to fall by half in the phase considered) in data set [3] was about 78.7 h. Moreover, in data set [4], the “Solubility, Condition 1” value is on record as “− (“−” denotes lack of solubility at the given condition, as UV absorbance at 340 nm exceeds 0.1 AU and/or it is visibly turbid or contains particles)”; the “Solubility, Condition 2” value is “+ (“+” denotes solubility at the given condition, as determined by UV absorbance being less than 0.1 AU at 340 nm and the sample being clear when manually inspected)”; the “Solubility, Condition 3” value is “+ (“+” denotes solubility at the given condition, as determined by UV absorbance being less than 0.1 AU at 340 nm and the sample being clear when manually inspected)”; the “Solubility, Condition 4” value is “+ (“+” denotes solubility at the given condition, as determined by UV absorbance being less than 0.1 AU at 340 nm and the sample being clear when manually inspected)”. Besides, the “Solubility, Condition 5” value in data set [4] is “+ (“+” denotes solubility at the given condition, as determined by UV absorbance being less than 0.1 AU at 340 nm and the sample being clear when manually inspected)”.

`CC[C@H](C)[C@@H]1NC(=O)[C@@H](NC(=O)[C@H](Cc2ccc(O)cc2)NC(=O)[C@H](C)NC(=O)[C@H](CO)NC(=O)CNC(=O)[C@H](CCC(=O)O)NC(C)=O)CSSC[C@@H](C(=O)N(C)CC(=O)N[C@@H](CCC(=O)O)C(N)=O)NC(=O)[C@H](CCCNC(=N)N)NC(=O)[C@H](Cc2c[nH]cn2)NC(=O)[C@H](CCC(=O)O)NC(=O)CNC(=O)[C@H](Cc2c[nH]c3ccccc23)NC(=O)[C@H](CC(=O)O)NC(=O)[C@H](CCC(N)=O)NC(=O)[C@H](Cc2cn(C)c3ccccc23)NC1=O` [Compound 54] (Ac-EGSAYCI[Trp(1-Me)]QDWGEHRC[Sar]E-NH2; disulfide 6-16): the IC50 in data set [1] was under 100 nM. For the same molecule, the “duration of action” value in data set [2] was “relatively short duration of action”. In data set [4], the “Solubility, Condition 1” value is on record as “− (“−” denotes lack of solubility at the given condition, as UV absorbance at 340 nm exceeds 0.1 AU and/or it is visibly turbid or contains particles)”; the “Solubility, Condition 2” value is “− (“−” denotes lack of solubility at the given condition, as UV absorbance at 340 nm exceeds 0.1 AU and/or it is visibly turbid or contains particles)”; the “Solubility, Condition 3” value is “+ (“+” denotes solubility at the given condition, as determined by UV absorbance being less than 0.1 AU at 340 nm and the sample being clear when manually inspected)”; the “Solubility, Condition 4” value is “+ (“+” denotes solubility at the given condition, as determined by UV absorbance being less than 0.1 AU at 340 nm and the sample being clear when manually inspected)”. In addition, in data set [4], the “Solubility, Condition 5” value is “+ (“+” denotes solubility at the given condition, as determined by UV absorbance being less than 0.1 AU at 340 nm and the sample being clear when manually inspected)”.

`CC[C@H](C)[C@@H]1NC(=O)[C@@H](NC(=O)[C@H](Cc2ccccc2)NC(C)=O)CSSC[C@@H](C(=O)N[C@H](C(=O)NCC(=O)N[C@@H](C)C(=O)N[C@@H](CCC(=O)O)C(=O)N[C@@H](CO)C(N)=O)[C@@H](C)O)NC(=O)[C@H](CCCNC(=N)N)NC(=O)[C@H](Cc2c[nH]cn2)NC(=O)[C@H](CCC(=O)O)NC(=O)CNC(=O)[C@H](Cc2c[nH]c3ccccc23)NC(=O)[C@H](CC(=O)O)NC(=O)[C@H](CCC(N)=O)NC(=O)[C@H](Cc2cn(C)c3ccccc23)NC1=O` [Compound 61] (Ac-FCI[Trp(1-Me)]QDWGEHRCTGAES-NH2; disulfide 2-12): the IC50 in data set [1] was under 100 nM. Moreover, the “duration of action” value in data set [2] is on record as “relatively short duration of action”. In data set [4], the “Solubility, Condition 1” value is listed as “− (“−” denotes lack of solubility at the given condition, as UV absorbance at 340 nm exceeds 0.1 AU and/or it is visibly turbid or contains particles)”; the “Solubility, Condition 2” value was “− (“−” denotes lack of solubility at the given condition, as UV absorbance at 340 nm exceeds 0.1 AU and/or it is visibly turbid or contains particles)”; the “Solubility, Condition 3” value is “+ (“+” denotes solubility at the given condition, as determined by UV absorbance being less than 0.1 AU at 340 nm and the sample being clear when manually inspected)”; the “Solubility, Condition 4” value is “+ (“+” denotes solubility at the given condition, as determined by UV absorbance being less than 0.1 AU at 340 nm and the sample being clear when manually inspected)”. Besides, the “Solubility, Condition 5” value in data set [4] was “+ (“+” denotes solubility at the given condition, as determined by UV absorbance being less than 0.1 AU at 340 nm and the sample being clear when manually inspected)”.

B1: Compound 1 (peptide)
peptide: Ac-ICIWQDWGAHRCT-NH2
modifications: disulfide 2-12
SMILES: CC[C@H](C)[C@H](NC(C)=O)C(=O)N[C@H]1CSSC[C@@H](C(=O)N[C@H](C(N)=O)[C@@H](C)O)NC(=O)[C@H](CCCNC(=N)N)NC(=O)[C@H](Cc2c[nH]cn2)NC(=O)[C@H](C)NC(=O)CNC(=O)[C@H](Cc2c[nH]c3ccccc23)NC(=O)[C@H](CC(=O)O)NC(=O)[C@H](CCC(N)=O)NC(=O)[C@H](Cc2c[nH]c3ccccc23)NC(=O)[C@H]([C@@H](C)CC)NC1=O
Regarding B1, the “inhibition of hemolysis IC50” value in data set [5] is under 250 nM. For the same molecule, the “CP hemolysis IC50” value in data set [6] worked out at 150 nM.
